# How the values were obtained:
# [1] = system: thrombin generation in pooled normal plasma spiked with anticoagulants; assay: Thrombin generation assay in pooled normal plasma spiked with anticoagulants; format: biochemical, human; conditions: for effect on the anticoagulant effect of apixaban: apixaban 60 ng/ml; for effect on the anticoagulant effect of apixaban / effect on the anticoagulant effect of dabigatran / effect on the anticoagulant effect of edoxaban / effect on the anticoagulant effect of rivaroxaban: cyclodextrin 100 μM, 1 pM TF; for effect on the anticoagulant effect of dabigatran: dabigatran 100 ng/ml; for effect on the anticoagulant effect of edoxaban: edoxaban 60 ng/ml; for effect on the anticoagulant effect of rivaroxaban: rivaroxaban 100 ng/ml
# Description: (§1) FIGS. 3-8, 12, 14-19 and 22-27: Pooled normal plasma was spiked with cyclodextrins (100 μM, unless otherwise indicated) and anticoagulants. The concentrations of the anticoagulants were 100 ng/ml for dabigatran (A), 100 ng/ml for rivaroxaban (B), 60 ng/ml for apixaban (C), 60 ng/ml for edoxaban (D). The plasmas were subjected to thrombin generation analysis as described in the Materials and Methods section with 1 pM tissue factor (TF) as initiator of coagulation.
# FIG. 9: Pooled normal plasma was spiked with OKL-1111 (100 μM, unless otherwise indicated (A)) and anticoagulants (B-E). The concentrations of the anticoagulants were 100 ng/ml for dabigatran (B), 100 ng/ml for rivaroxaban (C), 60 ng/ml for apixaban (D), 60 ng/ml for edoxaban (E). The plasmas were subjected to thrombin generation analysis as described in the Materials and Methods section with 1 pM tissue factor (TF) as initiator of coagulation.
# FIG. 10: Pooled normal plasma was spiked with OKL-1111 (100 μM) and anticoagulants (A-F). The concentrations of the anticoagulants were 2 μg/ml for fondaparinux (A), 0.4 U/ml for nadroparin (B), 0.1 U/ml for tinzaparin (C), 0.03 U/ml for unfractionated heparin (UFH) (D), 0.5 U/ml for hirudin (E) and 10 μg/ml for bivalirudin (F). The plasmas were subjected to thrombin generation analysis as described in the Materials and Methods section with 1 pM tissue factor (TF) as initiator of coagulation.
# (§2) The Calibrated Automated Thrombogram® assays the generation of thrombin in clotting plasma using a microtiter plate reading fluorometer (Fluoroskan Ascent, ThermoLab systems, Helsinki, Finland) and Thrombinoscope® software (Thrombinoscope BV, Maastricht, The Netherlands). The assay was carried out as described by Hemker et al. (Pathofysiol. IIaemost. Thromb. 2003, 33, 4-15), and the Thrombinoscope® manual. Coagulation was triggered by recalcification in the presence of 1 or 5 pM recombinant human tissue factor (Innovin®, Siemens, Marburg, Germany), 4 μM phospholipids, and 417 μM fluorogenic substrate Z-Gly-Gly-Arg-AMC (Bachem, Bubendorf, Switzerland). Fluorescence was monitored using the Fluoroskan Ascent fluorometer (ThermoLabsystems, Helsinki, Finland), and the lag time, peak thrombin, velocity index and area under the curve (ETP) were calculated using the Thrombinoscope® software (Thrombinoscope BV).
# [2] = system: thrombin generation in pooled normal plasma; assay: Calibrated Automated Thrombogram thrombin generation assay in pooled normal plasma; format: biochemical, human; conditions: for procoagulant effect in normal plasma: no anticoagulant, cyclodextrin 100 μM unless otherwise indicated, 1 pM TF; for procoagulant activity (overview): pooled normal plasma with and without the addition of anticoagulants; for lag time / peak thrombin: normal plasma, versus absence of cyclodextrin
# Description: as §1, §2
# Thrombin generation analyses were performed in pooled normal plasma with and without the addition of anticoagulants.
structure (smiles),measurement,setting,value
"O=C(O)CCSCC1OC2OC3C(CO)OC(OC4C(CO)OC(OC5C(CO)OC(OC6C(CO)OC(OC7C(CO)OC(OC8C(CO)OC(OC1C(O)C2O)C(O)C8O)C(O)C7O)C(O)C6O)C(O)C5O)C(O)C4O)C(O)C3O (centres unmarked) [OKL-1100, reference compound]",procoagulant effect in plasma containing anticoagulants (not specified / NOACs),[1],did not show procoagulant activity
same,procoagulant effect in normal plasma,[2],did not show procoagulant activity
same,procoagulant activity (overview),[2],No
"O=C(O)CCSCC1OC2OC3C(CSCCC(=O)O)OC(OC4C(CSCCC(=O)O)OC(OC5C(CSCCC(=O)O)OC(OC6C(CSCCC(=O)O)OC(OC7C(CSCCC(=O)O)OC(OC8C(CSCCC(=O)O)OC(OC1C(O)C2O)C(O)C8O)C(O)C7O)C(O)C6O)C(O)C5O)C(O)C4O)C(O)C3O (centres unmarked) [OKL-1101, reference compound]",procoagulant effect in plasma containing anticoagulants (not specified / NOACs),[1],did not show procoagulant activity
same,procoagulant effect in normal plasma,[2],did not show procoagulant activity
same,procoagulant activity (overview),[2],No
"O=C(O)CCSCC1OC2OC3C(CO)OC(OC4C(CO)OC(OC5C(CO)OC(OC6C(CO)OC(OC7C(CO)OC(OC8C(CO)OC(OC9C(CO)OC(OC1C(O)C2O)C(O)C9O)C(O)C8O)C(O)C7O)C(O)C6O)C(O)C5O)C(O)C4O)C(O)C3O (centres unmarked) [OKL-1102, reference compound]",procoagulant effect in plasma containing anticoagulants (not specified / NOACs),[1],did not show procoagulant activity
same,procoagulant effect in normal plasma,[2],did not show procoagulant activity
same,procoagulant activity (overview),[2],No
"O=C(O)CCSCC1OC2OC3C(CSCCC(=O)O)OC(OC4C(CSCCC(=O)O)OC(OC5C(CSCCC(=O)O)OC(OC6C(CSCCC(=O)O)OC(OC7C(CSCCC(=O)O)OC(OC8C(CSCCC(=O)O)OC(OC9C(CSCCC(=O)O)OC(OC1C(O)C2O)C(O)C9O)C(O)C8O)C(O)C7O)C(O)C6O)C(O)C5O)C(O)C4O)C(O)C3O (centres unmarked) [OKL-1103, reference compound]",procoagulant effect in plasma containing anticoagulants (not specified / NOACs),[1],did not show procoagulant activity
same,procoagulant effect in normal plasma,[2],did not show procoagulant activity
same,procoagulant activity (overview),[2],No
O=C(O)CCCSCC1OC2OC3C(CSCCCC(=O)O)OC(OC4C(CSCCCC(=O)O)OC(OC5C(CSCCCC(=O)O)OC(OC6C(CSCCCC(=O)O)OC(OC7C(CSCCCC(=O)O)OC(OC8C(CSCCCC(=O)O)OC(OC1C(O)C2O)C(O)C8O)C(O)C7O)C(O)C6O)C(O)C5O)C(O)C4O)C(O)C3O (centres unmarked) [OKL-1105],effect on the anticoagulant effect of apixaban,[1],procoagulant effects were observed
same,effect on the anticoagulant effect of dabigatran,[1],procoagulant effects were observed
same,effect on the anticoagulant effect of edoxaban,[1],procoagulant effects were observed
same,effect on the anticoagulant effect of rivaroxaban,[1],procoagulant effects were observed
same,procoagulant effect in normal plasma,[2],significant procoagulant effect
O=C(O)CCCSCC1OC2OC3C(CO)OC(OC4C(CO)OC(OC5C(CO)OC(OC6C(CO)OC(OC7C(CO)OC(OC8C(CO)OC(OC9C(CO)OC(OC1C(O)C2O)C(O)C9O)C(O)C8O)C(O)C7O)C(O)C6O)C(O)C5O)C(O)C4O)C(O)C3O (centres unmarked) [OKL-1106],effect on the anticoagulant effect of apixaban,[1],less pronounced
same,effect on the anticoagulant effect of dabigatran,[1],significantly antagonized
same,effect on the anticoagulant effect of edoxaban,[1],less pronounced
same,effect on the anticoagulant effect of rivaroxaban,[1],significantly antagonized
same,procoagulant effect in normal plasma,[2],procoagulant effect
O=C(O)CCCSCC1OC2OC3C(CSCCCC(=O)O)OC(OC4C(CSCCCC(=O)O)OC(OC5C(CSCCCC(=O)O)OC(OC6C(CSCCCC(=O)O)OC(OC7C(CSCCCC(=O)O)OC(OC8C(CSCCCC(=O)O)OC(OC9C(CSCCCC(=O)O)OC(OC1C(O)C2O)C(O)C9O)C(O)C8O)C(O)C7O)C(O)C6O)C(O)C5O)C(O)C4O)C(O)C3O (centres unmarked) [OKL-1107],effect on the anticoagulant effect of apixaban,[1],completely restored or even higher than in the non-anticoagulated plasma
same,effect on the anticoagulant effect of dabigatran,[1],completely restored or even higher than in the non-anticoagulated plasma
same,effect on the anticoagulant effect of edoxaban,[1],completely restored or even higher than in the non-anticoagulated plasma
same,effect on the anticoagulant effect of rivaroxaban,[1],completely restored or even higher than in the non-anticoagulated plasma
same,procoagulant effect in normal plasma,[2],strong procoagulant effects
same,lag time,[2],considerably shorter
same,peak thrombin,[2],largely increased
O=C(O)CCCCCSCC1OC2OC3C(CO)OC(OC4C(CO)OC(OC5C(CO)OC(OC6C(CO)OC(OC7C(CO)OC(OC8C(CO)OC(OC1C(O)C2O)C(O)C8O)C(O)C7O)C(O)C6O)C(O)C5O)C(O)C4O)C(O)C3O (centres unmarked) [OKL-1108],effect on the anticoagulant effect of apixaban,[1],antagonized
same,effect on the anticoagulant effect of dabigatran,[1],antagonized
same,effect on the anticoagulant effect of edoxaban,[1],antagonized
same,effect on the anticoagulant effect of rivaroxaban,[1],antagonized
same,procoagulant effect in normal plasma,[2],substantial procoagulant effect
O=C(O)CCCCCSCC1OC2OC3C(CSCCCCCC(=O)O)OC(OC4C(CSCCCCCC(=O)O)OC(OC5C(CSCCCCCC(=O)O)OC(OC6C(CSCCCCCC(=O)O)OC(OC7C(CSCCCCCC(=O)O)OC(OC8C(CSCCCCCC(=O)O)OC(OC1C(O)C2O)C(O)C8O)C(O)C7O)C(O)C6O)C(O)C5O)C(O)C4O)C(O)C3O (centres unmarked) [OKL-1109],effect on the anticoagulant effect of apixaban,[1],marginal or no effects
same,effect on the anticoagulant effect of dabigatran,[1],marginal or no effects
same,effect on the anticoagulant effect of edoxaban,[1],marginal or no effects
same,effect on the anticoagulant effect of rivaroxaban,[1],marginal or no effects
same,procoagulant effect in normal plasma,[2],small effects
O=C(O)CCCCCSCC1OC2OC3C(CO)OC(OC4C(CO)OC(OC5C(CO)OC(OC6C(CO)OC(OC7C(CO)OC(OC8C(CO)OC(OC9C(CO)OC(OC1C(O)C2O)C(O)C9O)C(O)C8O)C(O)C7O)C(O)C6O)C(O)C5O)C(O)C4O)C(O)C3O (centres unmarked) [OKL-1110],effect on the anticoagulant effect of apixaban,[1],fully counteracted
same,effect on the anticoagulant effect of dabigatran,[1],strongly antagonized
same,effect on the anticoagulant effect of edoxaban,[1],fully counteracted
same,effect on the anticoagulant effect of rivaroxaban,[1],fully counteracted
same,procoagulant effect in normal plasma,[2],very potent procoagulant effect
OCCCSCC1OC2OC3C(CSCCCO)OC(OC4C(CSCCCO)OC(OC5C(CSCCCO)OC(OC6C(CSCCCO)OC(OC7C(CSCCCO)OC(OC8C(CSCCCO)OC(OC9C(CSCCCO)OC(OC1C(O)C2O)C(O)C9O)C(O)C8O)C(O)C7O)C(O)C6O)C(O)C5O)C(O)C4O)C(O)C3O (centres unmarked) [OKL-1146],effect on the anticoagulant effect of apixaban,[1],restoration of thrombin generation to levels far above that of non-anticoagulated plasma
same,effect on the anticoagulant effect of dabigatran,[1],restoration of thrombin generation to levels far above that of non-anticoagulated plasma
same,effect on the anticoagulant effect of edoxaban,[1],restoration of thrombin generation to levels far above that of non-anticoagulated plasma
same,effect on the anticoagulant effect of rivaroxaban,[1],restoration of thrombin generation to levels far above that of non-anticoagulated plasma
same,procoagulant effect in normal plasma,[2],very strong procoagulant effects
same,lag time,[2],considerably shorter
same,peak thrombin,[2],largely increased
"O=C(O)CCSCC1OC2OC3C(CSCCC(=O)O)OC(OC4C(CSCCC(=O)O)OC(OC5C(CSCCC(=O)O)OC(OC6C(CSCCC(=O)O)OC(OC7C(CSCCC(=O)O)OC(OC8C(CSCCC(=O)O)OC(OC9C(CSCCC(=O)O)OC(OC1C(O)C2O)C(O)C9O)C(O)C8O)C(O)C7O)C(O)C6O)C(O)C5O)C(O)C4O)C(O)C3O (centres unmarked) [OKL-1170, reference compound]",procoagulant effect in plasma containing anticoagulants (not specified / NOACs),[1],did not show procoagulant activity
same,procoagulant effect in normal plasma,[2],did not show procoagulant activity
same,procoagulant activity (overview),[2],No
O=C(O)CCCCSCC1OC2OC3C(CSCCCCC(=O)O)OC(OC4C(CSCCCCC(=O)O)OC(OC5C(CSCCCCC(=O)O)OC(OC6C(CSCCCCC(=O)O)OC(OC7C(CSCCCCC(=O)O)OC(OC8C(CSCCCCC(=O)O)OC(OC1C(O)C2O)C(O)C8O)C(O)C7O)C(O)C6O)C(O)C5O)C(O)C4O)C(O)C3O (centres unmarked) [OKL-1178],procoagulant effect in normal plasma,[2],procoagulant activity
O=C(O)CCCCCCSCC1OC2OC3C(CSCCCCCCC(=O)O)OC(OC4C(CSCCCCCCC(=O)O)OC(OC5C(CSCCCCCCC(=O)O)OC(OC6C(CSCCCCCCC(=O)O)OC(OC7C(CSCCCCCCC(=O)O)OC(OC8C(CSCCCCCCC(=O)O)OC(OC1C(O)C2O)C(O)C8O)C(O)C7O)C(O)C6O)C(O)C5O)C(O)C4O)C(O)C3O (centres unmarked) [OKL-1179],procoagulant effect in normal plasma,[2],procoagulant activity
